Test results as given in BigSolDB 2.1.

Cl.N/N=C(\N)NN
Conditions	solubility (mole fraction)
in THF, 273.15 K	1.96e-05
in THF, 278.15 K	2.74e-05
in THF, 283.15 K	3.7e-05
in THF, 288.15 K	5.17e-05
in THF, 293.15 K	6.85e-05
in THF, 298.15 K	9.12e-05
in THF, 303.15 K	0.000119
in THF, 308.15 K	0.000154
in THF, 313.15 K	0.000209
in THF, 318.15 K	0.000265
in THF, 323.15 K	0.000333
in acetonitrile, 273.15 K	7.35e-06
in acetonitrile, 278.15 K	1.19e-05
in acetonitrile, 283.15 K	1.4e-05
in acetonitrile, 288.15 K	2.09e-05
in acetonitrile, 293.15 K	2.72e-05
in acetonitrile, 298.15 K	3.41e-05
in acetonitrile, 303.15 K	5.02e-05
in acetonitrile, 308.15 K	6.91e-05
in acetonitrile, 313.15 K	8.3e-05
in acetonitrile, 318.15 K	9.96e-05
in acetonitrile, 323.15 K	0.000142
in ethanol, 273.15 K	0.000112
in ethanol, 278.15 K	0.000156
in ethanol, 283.15 K	0.000207
in ethanol, 288.15 K	0.0003
in ethanol, 293.15 K	0.000373
in ethanol, 298.15 K	0.00054
in ethanol, 303.15 K	0.000666
in ethanol, 308.15 K	0.000904
in ethanol, 313.15 K	0.00119
in ethanol, 318.15 K	0.00158
in ethanol, 323.15 K	0.002
in ethyl acetate, 273.15 K	1.56e-05
in ethyl acetate, 278.15 K	2.2e-05
in ethyl acetate, 283.15 K	3.03e-05
in ethyl acetate, 288.15 K	4.16e-05
in ethyl acetate, 293.15 K	5.57e-05
in ethyl acetate, 298.15 K	7.51e-05
in ethyl acetate, 303.15 K	0.000101
in ethyl acetate, 308.15 K	0.00013
in ethyl acetate, 313.15 K	0.000169
in ethyl acetate, 318.15 K	0.000217
in ethyl acetate, 323.15 K	0.000281
in isobutanol, 273.15 K	2.22e-05
in isobutanol, 278.15 K	3.04e-05
in isobutanol, 283.15 K	4.2e-05
in isobutanol, 288.15 K	5.88e-05
in isobutanol, 293.15 K	7.77e-05
in isobutanol, 298.15 K	0.000105
in isobutanol, 303.15 K	0.000134
in isobutanol, 308.15 K	0.000177
in isobutanol, 313.15 K	0.000233
in isobutanol, 318.15 K	0.000301
in isobutanol, 323.15 K	0.000389
in isopropanol, 273.15 K	2.41e-05
in isopropanol, 278.15 K	3.39e-05
in isopropanol, 283.15 K	4.68e-05
in isopropanol, 288.15 K	6.35e-05
in isopropanol, 293.15 K	8.43e-05
in isopropanol, 298.15 K	0.000112
in isopropanol, 303.15 K	0.000148
in isopropanol, 308.15 K	0.000192
in isopropanol, 313.15 K	0.000248
in isopropanol, 318.15 K	0.000326
in isopropanol, 323.15 K	0.000417
in methanol, 273.15 K	0.00218
in methanol, 278.15 K	0.00272
in methanol, 283.15 K	0.00338
in methanol, 288.15 K	0.00436
in methanol, 293.15 K	0.00522
in methanol, 298.15 K	0.00664
in methanol, 303.15 K	0.00802
in methanol, 308.15 K	0.00971
in methanol, 313.15 K	0.0118
in methanol, 318.15 K	0.0144
in methanol, 323.15 K	0.0175
in n-butanol, 273.15 K	3.27e-05
in n-butanol, 278.15 K	4.64e-05
in n-butanol, 283.15 K	6.17e-05
in n-butanol, 288.15 K	8.36e-05
in n-butanol, 293.15 K	0.000111
in n-butanol, 298.15 K	0.000147
in n-butanol, 303.15 K	0.000197
in n-butanol, 308.15 K	0.000259
in n-butanol, 313.15 K	0.000345
in n-butanol, 318.15 K	0.000432
in n-butanol, 323.15 K	0.000549
in n-heptane, 273.15 K	1.74e-05
in n-heptane, 278.15 K	2.52e-05
in n-heptane, 283.15 K	3.41e-05
in n-heptane, 288.15 K	4.7e-05
in n-heptane, 293.15 K	6.36e-05
in n-heptane, 298.15 K	8.63e-05
in n-heptane, 303.15 K	0.000119
in n-heptane, 308.15 K	0.000153
in n-heptane, 313.15 K	0.000204
in n-heptane, 318.15 K	0.000264
in n-heptane, 323.15 K	0.000334
in n-hexane, 273.15 K	1.77e-05
in n-hexane, 278.15 K	2.5e-05
in n-hexane, 283.15 K	3.47e-05
in n-hexane, 288.15 K	4.69e-05
in n-hexane, 293.15 K	6.58e-05
in n-hexane, 298.15 K	8.84e-05
in n-hexane, 303.15 K	0.000115
in n-hexane, 308.15 K	0.000154
in n-hexane, 313.15 K	0.000205
in n-hexane, 318.15 K	0.000261
in n-hexane, 323.15 K	0.00035
in n-propanol, 273.15 K	4.25e-05
in n-propanol, 278.15 K	5.9e-05
in n-propanol, 283.15 K	7.94e-05
in n-propanol, 288.15 K	0.00011
in n-propanol, 293.15 K	0.000145
in n-propanol, 298.15 K	0.000189
in n-propanol, 303.15 K	0.000253
in n-propanol, 308.15 K	0.000319
in n-propanol, 313.15 K	0.000412
in n-propanol, 318.15 K	0.000539
in n-propanol, 323.15 K	0.000675
in water, 273.15 K	0.0395
in water, 278.15 K	0.0481
in water, 283.15 K	0.0546
in water, 288.15 K	0.0664
in water, 293.15 K	0.0778
in water, 298.15 K	0.0879
in water, 303.15 K	0.101
in water, 308.15 K	0.112
in water, 313.15 K	0.127
in water, 318.15 K	0.145
in water, 323.15 K	0.161
